Measured values published in publication PMC9146984, “A Novel Proline-Rich Cathelicidin from the Alpaca Vicugna pacos with Potency to Combat Antibiotic-Resistant Bacteria: Mechanism of Action and the Functional Role of the C-Terminal Region” (Membranes, 2022).
Converted amounts (≈) assume the structure as drawn. Like-named read-outs stand apart in the source and are kept apart here. Where a SMILES comes first, the peptide text is derived from it. Bridges are numbered along the chain shown (N, C = ends). [ ]: non-standard residue; d: D form. The star is where a group is joined. X1 = CC[C@H](C)CCCCC(=O)*; Dab = NCC[C@H](N)C(=O)O

Legend:
E. coli BW25113 ΔsbmA = format: cell-based, Escherichia coli; conditions: Mueller–Hinton broth, 24 h, 37 °C, median
Experimental: (§1) The reduction of resazurin to resorufin was measured.

E. coli BW25113 ΔmdtM = format: cell-based, Escherichia coli; conditions: Mueller–Hinton broth, 24 h, 37 °C, median
Experimental: as §1

E. coli BW25113 ΔompF = format: cell-based, Escherichia coli; conditions: Mueller–Hinton broth, 24 h, 37 °C, median
Experimental: as §1

E. coli MDR CI 1057 = conditions: Mueller-Hinton broth supplemented with 0.9% NaCl; for Minimum inhibitory concentration E.coli MDR 1057 14 days w/o AMP: after 14 passages without antimicrobial agents; for Minimum inhibitory concentration E.coli MDR 1057 0 days: before passages
Experimental: (§2) Bacterial test cultures were grown in the Mueller-Hinton broth (MH; Sigma, St. Louis, MO, USA) at 37 °C to mid-log phase and then diluted with the 2× MH medium supplemented with 1.8% NaCl or without salt so that to reach a final cell concentration of 10^6 CFU/mL. 50 µL of the obtained bacterial suspension were added to aliquots of 50 µL of the peptide solutions serially diluted with sterilized 0.1% bovine serum albumin (BSA) in 96-well flat-bottom polystyrene microplates (Eppendorf #0030730011, Hamburg, Germany). […] To verify MIC values, the respiratory activity of the bacteria was determined. Briefly, 20 µL of 0.1 mg/mL resazurin (a redox indicator; Sigma, St. Louis, MO, USA) was added to the wells after 24 h of incubation, and the plate was incubated for an additional two hours. The reduction of resazurin to resorufin was measured. […] The results were expressed as the median values determined based on at least three independent experiments performed in triplicate.
(§3) Resistance induction experiments were performed using the previously described method. Briefly, on day one, the overnight culture of wild-type bacteria was diluted with the 2× MH broth supplemented with 1.8% NaCl to reach a final cell concentration of 10^6 CFU/mL. 50 µL of the obtained bacterial suspension were added to aliquots of 50 µL of the peptide solutions serially diluted with the sterilized 0.1% BSA in 96-well flat-bottom polystyrene microplates. After incubation for 20 ± 2 h at 37 °C and 950 rpm, MICs were determined as described above. For each subsequent daily transfer, 2–4 μL of the inoculum taken from the first well containing a sub-inhibitory drug concentration were diluted with 2 mL of the fresh 2× MH broth supplemented with 1.8% NaCl. […] 14 repeated passages in the presence of antimicrobial agents were made for each bacterial strain during the experiment. Bacteria that grew at the highest concentration of AMPs on the final day were passaged a further 3 times on drug-free agar plates before determining the final MIC value.

[1] = tested on: VicBac[1–22]-resistant E. coli MDR 1057 strain; conditions: Mueller-Hinton broth supplemented with 0.9% NaCl; strain selected 14 days with VicBac[1-22]; cross-resistance
Experimental: as §2, §3

E. coli MDR 1057 = conditions: MH broth with 0.9% NaCl, 14 passages with the same agent (VicBac[1–22]: after 10 passages)
Experimental: Resistance induction experiments were performed using the previously described method. Briefly, on day one, the overnight culture of wild-type bacteria was diluted with the 2× MH broth supplemented with 1.8% NaCl to reach a final cell concentration of 10^6 CFU/mL. 50 µL of the obtained bacterial suspension were added to aliquots of 50 µL of the peptide solutions serially diluted with the sterilized 0.1% BSA in 96-well flat-bottom polystyrene microplates. After incubation for 20 ± 2 h at 37 °C and 950 rpm, MICs were determined as described above. For each subsequent daily transfer, 2–4 μL of the inoculum taken from the first well containing a sub-inhibitory drug concentration were diluted with 2 mL of the fresh 2× MH broth supplemented with 1.8% NaCl. […] Bacteria that grew at the highest concentration of AMPs on the final day were passaged a further 3 times on drug-free agar plates before determining the final MIC value.

E. coli BW25113 = format: cell-based, Escherichia coli; conditions: Mueller–Hinton broth, 24 h, 37 °C, median
Experimental: as §1

| Compound | Minimum inhibitory concentration, E. coli strain ΔsbmA (E. coli BW25113 ΔsbmA; 0.9% NaCl: +) | Minimum inhibitory concentration, E. coli strain ΔsbmA (E. coli BW25113 ΔsbmA; 0.9% NaCl: −) | Minimum inhibitory concentration, E. coli strain ΔmdtM (E. coli BW25113 ΔmdtM; 0.9% NaCl: +) | Minimum inhibitory concentration, E. coli strain ΔmdtM (E. coli BW25113 ΔmdtM; 0.9% NaCl: −) | Minimum inhibitory concentration, E. coli strain ΔompF (E. coli BW25113 ΔompF; 0.9% NaCl: +) | Minimum inhibitory concentration, E. coli strain ΔompF (E. coli BW25113 ΔompF; 0.9% NaCl: −) | Minimum inhibitory concentration E.coli MDR 1057 14 days w/o AMP (E. coli MDR CI 1057) | Minimum inhibitory concentration E.coli MDR 1057 0 days (E. coli MDR CI 1057) | Minimum inhibitory concentration E.coli MDR 1057 14 days with VicBac [1-22] [1] | increase in MIC value after serial passage selection (E. coli MDR 1057) | Minimum inhibitory concentration, E. coli strain BW25113 (E. coli BW25113; 0.9% NaCl: +) | Minimum inhibitory concentration, E. coli strain BW25113 (E. coli BW25113; 0.9% NaCl: −) |
| --- | --- | --- | --- | --- | --- | --- | --- | --- | --- | --- | --- | --- |
| CC[C@H](C)[C@H](NC(=O)[C@H](CCCNC(=N)N)NC(=O)[C@@H](N)CCCNC(=N)N)C(=O)N[C@@H](CCCNC(=N)N)C(=O)N1CCC[C@H]1C(=O)N[C@@H](CCCNC(=N)N)C(=O)N1CCC[C@H]1C(=O)N1CCC[C@H]1C(=O)N[C@@H](CCCNC(=N)N)C(=O)N[C@@H](CC(C)C)C(=O)N1CCC[C@H]1C(=O)N[C@@H](CCCNC(=N)N)C(=O)N1CCC[C@H]1C(=O)N[C@@H](CCCNC(=N)N)C(=O)N1CCC[C@H]1C(=O)N[C@@H](CCCNC(=N)N)C(=O)N1CCC[C@H]1C(=O)N[C@@H](CC(C)C)C(=O)N1CCC[C@H]1C(=O)N[C@@H](Cc1ccccc1)C(=O)N1CCC[C@H]1C(=O)N[C@@H](CCCNC(=N)N)C(=O)O [Bac7[1-22], reference compound] (H-RRIRPRPPRLPRPRPRPLPFPR-OH) | 32 µM (≈ 89.1 µg/mL) | 1 µM (≈ 2.78 µg/mL) | 1 µM (≈ 2.78 µg/mL) | 4 µM (≈ 11.1 µg/mL) | 32 µM (≈ 89.1 µg/mL) | 2 µM (≈ 5.57 µg/mL) | 1 µM (≈ 2.78 µg/mL) | 1 µM (≈ 2.78 µg/mL) | > 128 µM |  |  |  |
| CC[C@H](C)[C@H](NC(=O)[C@H](CCCNC(=N)N)NC(=O)[C@@H](N)CCCNC(=N)N)C(=O)N[C@@H](CCCNC(=N)N)C(=O)N[C@@H](CCCNC(=N)N)C(=O)N1CCC[C@H]1C(=O)N[C@@H](CCCNC(=N)N)C(=O)N[C@@H](CC(C)C)C(=O)N1CCC[C@H]1C(=O)N[C@@H](CCCNC(=N)N)C(=O)N1CCC[C@H]1C(=O)N[C@@H](CCCNC(=N)N)C(=O)N[C@H](C(=O)N1CCC[C@H]1C(=O)O)C(C)C [VicBac[1-14]] (H-RRIRRPRLPRPRVP-OH; N-terminus and C-terminus assumed) | > 64 µM | 64 µM (≈ 117 µg/mL) | > 64 µM | 32 µM (≈ 58.4 µg/mL) | > 64 µM | 64 µM (≈ 117 µg/mL) |  |  |  |  |  |  |
| CC[C@H](C)CCCCC(=O)N[C@@H](CCN)C(=O)N[C@H](C(=O)N[C@@H](CCN)C(=O)N[C@H]1CCNC(=O)[C@H]([C@@H](C)O)NC(=O)[C@H](CCN)NC(=O)[C@H](CCN)NC(=O)[C@H](CC(C)C)NC(=O)[C@@H](Cc2ccccc2)NC(=O)[C@H](CCN)NC1=O)[C@@H](C)O [Polymyxin B, polymyxin B] (X1-[Dab]T[Dab][Dab][Dab][dF]L[Dab][Dab]T; lactam 4-C (inferred); N-terminus assumed) |  |  |  |  |  |  | 0.125 µM (≈ 0.15 µg/mL) | 0.125 µM (≈ 0.15 µg/mL) | 1 µM | 128 fold |  |  |
| CC[C@H](C)[C@H](NC(=O)[C@H](CCCNC(=N)N)NC(=O)[C@@H](N)CCCNC(=N)N)C(=O)N[C@@H](CCCNC(=N)N)C(=O)N[C@@H](CCCNC(=N)N)C(=O)N1CCC[C@H]1C(=O)N[C@@H](CCCNC(=N)N)C(=O)N[C@@H](CC(C)C)C(=O)N1CCC[C@H]1C(=O)N[C@@H](CCCNC(=N)N)C(=O)N1CCC[C@H]1C(=O)N[C@@H](CCCNC(=N)N)C(=O)N[C@H](C(=O)N1CCC[C@H]1C(=O)N[C@@H](CCCNC(=N)N)C(=O)N1CCC[C@H]1C(=O)N[C@@H](CCCNC(=N)N)C(=O)N[C@H](C(=O)N1CCC[C@H]1C(=O)N1CCC[C@H]1C(=O)O)[C@@H](C)CC)C(C)C [VicBac[1-20]] (H-RRIRRPRLPRPRVPRPRIPP-OH; N-terminus and C-terminus assumed) | > 64 µM | 8 µM (≈ 20.3 µg/mL) | 4 µM (≈ 10.2 µg/mL) | 8 µM (≈ 20.3 µg/mL) | 64 µM (≈ 163 µg/mL) | 16 µM (≈ 40.7 µg/mL) |  |  |  |  |  |  |
| CC(C)C[C@H](NC(=O)[C@H](CCCNC(=N)N)NC(=O)[C@@H]1CCCN1C(=O)[C@@H]1CCCN1C(=O)[C@H](Cc1ccccc1)NC(=O)[C@H](Cc1ccccc1)NC(=O)[C@@H]1CCCN1C(=O)[C@@H]1CCCN1C(=O)[C@@H]1CCCN1C(=O)[C@H](CCCNC(=N)N)NC(=O)[C@@H]1CCCN1C(=O)[C@H](CCCNC(=N)N)NC(=O)[C@@H]1CCCN1C(=O)[C@H](CC(C)C)NC(=O)[C@H](Cc1ccc(O)cc1)NC(=O)[C@@H]1CCCN1C(=O)[C@@H]1CCCN1C(=O)[C@H](CCCNC(=N)N)NC(=O)[C@@H]1CCCN1C(=O)[C@H](CCCNC(=N)N)NC(=O)[C@H](CCCNC(=N)N)NC(=O)[C@@H](N)CCCNC(=N)N)C(=O)O [PR-39[1-22]] (H-RRRPRPPYLPRPRPPPFFPPRL-OH; N-terminus and C-terminus assumed) |  |  |  |  |  |  | 2 µM (≈ 5.53 µg/mL) | 2 µM (≈ 5.53 µg/mL) | > 128 µM |  |  |  |
| CC[C@H](C)[C@H](NC(=O)[C@H](CCCCN)NC(=O)[C@H](CCC(=O)O)NC(=O)[C@H](CCCCN)NC(=O)[C@H](CO)NC(=O)[C@H](CCCCN)NC(=O)[C@H](CCCNC(=N)N)NC(=O)[C@H](Cc1ccccc1)NC(=O)[C@H](Cc1ccccc1)NC(=O)[C@H](CC(=O)O)NC(=O)CNC(=O)[C@H](CC(C)C)NC(=O)[C@@H](N)CC(C)C)C(=O)NCC(=O)N[C@@H](CCCCN)C(=O)N[C@@H](CCC(=O)O)C(=O)N[C@@H](Cc1ccccc1)C(=O)N[C@@H](CCCCN)C(=O)N[C@@H](CCCNC(=N)N)C(=O)N[C@H](C(=O)N[C@H](C(=O)N[C@@H](CCC(N)=O)C(=O)N[C@@H](CCCNC(=N)N)C(=O)N[C@H](C(=O)N[C@@H](CCCCN)C(=O)N[C@@H](CC(=O)O)C(=O)N[C@@H](Cc1ccccc1)C(=O)N[C@@H](CC(C)C)C(=O)N[C@@H](CCCNC(=N)N)C(=O)N[C@@H](CC(N)=O)C(=O)N[C@@H](CC(C)C)C(=O)N[C@H](C(=O)N1CCC[C@H]1C(=O)N[C@@H](CCCNC(=N)N)C(=O)N[C@H](C(=O)N[C@@H](CCC(=O)O)C(=O)N[C@@H](CO)C(=O)O)[C@@H](C)O)C(C)C)[C@@H](C)CC)C(C)C)[C@@H](C)CC [LL-37, reference compound] | 2 µM (≈ 8.99 µg/mL) | 4 µM (≈ 18 µg/mL) | 4 µM (≈ 18 µg/mL) | 4 µM (≈ 18 µg/mL) | 2 µM (≈ 8.99 µg/mL) | 4 µM (≈ 18 µg/mL) | 4 µM (≈ 18 µg/mL) | 4 µM (≈ 18 µg/mL) | 4 µM | 2 fold | 2 µM (≈ 8.99 µg/mL) | 4 µM (≈ 18 µg/mL) |
